Reference: US20090130035A1, “STABILIZED PREPARATIONS COMPRISING PHENOLIC COMPOUNDS AND BENZOPHENONES” (SYMRISE GmbH & Co. KG, priority 2006, published 2009)

Legend:
Format in all cases: physicochemical
[1] = Irradiation (24 h UV test, Ultra-Vitalux W300) of oil phase solutions, chromametric b* values; settings: for b* value: after irradiation
Procedure: In order to examine to what extent the stability of the compound of the formula (IA) can be increased by predissolution in an oil phase to which an oil-soluble photoprotective filter of the formula (II) is added, irradiation experiments were conducted. The oil phase used was 2-ethylhexyl isononanoate (INCI: Ethylhexyl isononanoate). The amount of 4-(1-phenylethyl)-1,3-dihydroxybenzene (formula (IA) was in this case in a range from 10% to 20% by weight, based on the amount of oil phase. The amount of the photoprotective filter added for colour stabilization, 2-hydroxy-4-methoxybenzophenone (INCI: Benzophenone-3, formula (IIC)), was in each case 1% by weight. In order to examine to what extent the addition of a photoprotective filter of the formula (II) is advantageous, all of the samples were irradiated for 24 hours with light (light source: Ultra-Vitalux W300). For the measurement of any colour changes that occurred, all of the samples were subjected to chromametry both before and after irradiation to determine the b* values, which represent a measure of the shift in the blue-yellow axis and so give a direct indication of a yellow discoloration occurring.

[2] = pH series: aqueous-ethanolic solutions stored in the dark for 28 days, chromametric b* values; settings: after 28 days, without disodium EDTA
Procedure: In order to examine to what extent the degradation and the associated yellow to brown discoloration of 4-(1-phenylethyl)-1,3-dihydroxybenzene (CARN: 85-27-8; formula (IA)) in cosmetic and pharmaceutical formulations is also influenced by the pH value of the preparation, serial pH experiments were conducted, by dissolving 4-(1-phenylethyl)-1,3-dihydroxybenzene (CARN: 85-27-8; formula (IA)) in aqueous/ethanolic solutions which had been adjusted to different pH values (pH 4, 5, 7 and 9, Table 2) using buffer solutions. The amount of 4-(1-phenylethyl)-1,3-dihydroxybenzene (CARN: 85-27-8; formula (IA)) was in each case 0.5 percent by weight. All of the samples were stored in the dark for 28 days at room temperature. In order to measure any colour changes occurring, all samples were subjected to chromametric determination, both at the beginning of the experiment and at the end of a storage time of 28 days, of the b* values, which represent a measure of the shift in the blue-yellow axis and therefore give a direct indication of any yellow discoloration occurring.

[3] = pH series with disodium EDTA: aqueous-ethanolic solutions stored in the dark for 28 days, chromametric b* values; settings: after 28 days
From the text: The amount of 4-(1-phenylethyl)-1,3-dihydroxybenzene (CARN: 85-27-8; formula (IA)) was again in each case 0.5 percent by weight. The samples were likewise stored in the dark at room temperature for 28 days.

b* value ([1]; reference specimen not stabilized with benzophenone-3): 34.0
b* value ([1]; solution with 10 percent by weight, plus 1 percent benzophenone-3): 10.3
b* value ([1]; solution with 15 percent by weight, plus 1 percent benzophenone-3): 15.5
b* value ([1]; solution with 20 percent by weight, plus 1 percent benzophenone-3): 10.6
stability of solutions on irradiation with light ([1]; light source Ultra-Vitalux W300, yellowish to brownish discoloration): a certain instability
b* value ([2]; pH 4, 0.5% solution): 2.0
b* value ([2]; pH 5, 0.5% solution): 4.6
b* value ([2]; pH 7, 0.5% solution): 19.4
b* value ([2]; pH 9, 0.5% solution): 55.3
b* value ([3]; pH 4, 0.5% solution): 1.5
b* value ([3]; pH 5, 0.5% solution): 3.6
b* value ([3]; pH 7, 0.5% solution): 14.8
b* value ([3]; pH 9, 0.5% solution): 40.2
SMILES: CC(c1ccccc1)c1ccc(O)cc1O (stereo not shown) [4-(1-phenylethyl)-1,3-dihydroxybenzene]
